According to ChEMBL document CHEMBL4184329, “Identification and Structure-Activity Relationship of HDAC6 Zinc-Finger Ubiquitin Binding Domain Inhibitors” (J Med Chem, 2018):
pIC50, pKd: −log10 of the molar value.

These molecules were tested against T1, Protein deacetylase HDAC6 (Homo sapiens, UniProt Q9UBN7) (assay: Displacement of N-terminal FITC-labeled RLRGG from N-terminal AviTag/C-terminal His6-tagged HDAC6 ZnF-UBD (unknown origin) expressed in Escherichia coli BL21 (DE3) after 10 mins by fluorescence polarization assay). Conditions: not given; call rule not given here.
T1 sequence (Q9UBN7 whole entry): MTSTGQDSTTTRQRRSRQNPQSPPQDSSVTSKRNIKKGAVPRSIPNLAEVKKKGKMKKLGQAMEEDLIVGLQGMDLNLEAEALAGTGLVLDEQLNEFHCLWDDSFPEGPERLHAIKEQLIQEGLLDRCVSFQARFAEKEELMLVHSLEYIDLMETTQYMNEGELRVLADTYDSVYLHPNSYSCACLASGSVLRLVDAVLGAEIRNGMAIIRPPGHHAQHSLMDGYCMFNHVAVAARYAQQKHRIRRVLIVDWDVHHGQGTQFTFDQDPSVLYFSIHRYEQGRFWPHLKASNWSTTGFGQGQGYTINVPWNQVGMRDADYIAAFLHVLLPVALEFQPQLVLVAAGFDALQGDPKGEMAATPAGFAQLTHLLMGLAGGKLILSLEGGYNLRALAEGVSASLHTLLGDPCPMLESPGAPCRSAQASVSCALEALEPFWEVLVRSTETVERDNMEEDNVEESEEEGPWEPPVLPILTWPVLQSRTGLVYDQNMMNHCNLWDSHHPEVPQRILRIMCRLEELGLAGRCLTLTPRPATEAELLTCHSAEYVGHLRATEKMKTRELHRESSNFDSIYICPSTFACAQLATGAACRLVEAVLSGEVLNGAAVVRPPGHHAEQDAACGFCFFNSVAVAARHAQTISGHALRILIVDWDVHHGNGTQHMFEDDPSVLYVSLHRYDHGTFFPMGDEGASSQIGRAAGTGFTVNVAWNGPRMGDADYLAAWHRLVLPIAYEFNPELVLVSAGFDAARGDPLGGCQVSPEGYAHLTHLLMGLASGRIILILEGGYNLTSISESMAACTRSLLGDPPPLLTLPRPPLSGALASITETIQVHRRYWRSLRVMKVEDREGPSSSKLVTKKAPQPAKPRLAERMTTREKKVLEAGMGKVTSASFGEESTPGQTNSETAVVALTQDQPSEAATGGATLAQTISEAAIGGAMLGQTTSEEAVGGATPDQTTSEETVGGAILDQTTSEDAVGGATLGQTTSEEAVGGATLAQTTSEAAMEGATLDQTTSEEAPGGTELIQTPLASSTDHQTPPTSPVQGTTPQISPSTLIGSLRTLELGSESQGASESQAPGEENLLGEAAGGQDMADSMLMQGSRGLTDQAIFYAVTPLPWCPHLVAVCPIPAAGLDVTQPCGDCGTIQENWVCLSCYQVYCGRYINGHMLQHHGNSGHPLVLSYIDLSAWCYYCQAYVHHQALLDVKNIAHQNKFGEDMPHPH

Row | Structure (SMILES) | IC50
1 | COC(=O)CCc1nc2ccccc2nc1OC | Not Active
2 | COc1nccnc1CCC(=O)O | Not Active
3 | COC(CC(=O)O)c1nc2ccccc2s1 (stereo unspecified) | Not Active
4 | CS(=O)(=O)Cc1nc2ccccc2n1CC(=O)Nc1cccc(NC(N)=O)c1 | Not Active
5 | O=C(O)C(O)C(O)c1nc2ccccc2s1 (stereo unspecified) | Not Active
6 | O=C(O)CCc1nc2ccccc2[nH]1 [PROCODAZOLE] | Not Active
7 | O=C(O)CCc1nc2ccccc2o1 | Not Active
8 | COC(Cc1nc2ccccc2s1)C(=O)O (stereo unspecified) | Not Active
9 | CNC(=O)CCc1nc2ccccc2nc1OC | Not Active
10 | O=C(O)CCCc1nc2ccccc2s1 | Not Active
11 | O=C(O)Cc1ccc2ccccc2n1 | Not Active
12 | COc1nc2ccccc2nc1CCC(N)=O | Not Active
13 | O=C(O)CCc1cc2ccccc2o1 | Not Active
14 | CC(Cc1nc2ccccc2s1)C(=O)O (stereo unspecified) | Not Active
15 | CN(C(=O)Cn1c(CS(C)(=O)=O)nc2ccccc21)c1ccccc1 | Not Active

Same assay, conditions: read-out: IC50

Row | Structure (SMILES) | pIC50
16 | COc1cc2ncn(CCC(=O)O)c(=O)c2cc1OC | 4.02
17 | NC(=O)c1cc(-n2c(CCC(=O)O)nc3ccccc32)cs1 | 3.19
18 | O=C(O)Cn1nc(O)c2ccccc2c1=O | 3.70
19 | O=C(O)CCc1nc2ccccc2s1 | 3.74
20 | COc1cc2ncn(CC(=O)O)c(=O)c2cc1OC | 4.36
21 | O=C(O)Cn1cnc2ccc(Br)cc2c1=O | 3.70
22 | Cc1cc(C)c2c(n1)sc1c(=O)n(CC(=O)O)cnc12 | 3.72
23 | O=C(O)Cn1cnc2c(oc3ccccc32)c1=O | 4.29
24 | O=C(O)CCn1nnc2ccccc2c1=O | 3.62
25 | Cn1c(=O)c(CCC(=O)O)nc2ccccc21 | 4.19
26 | O=C(O)CCc1nc2cc3nc(CCC(=O)O)sc3cc2s1 | 5.29
27 | O=C(O)CCc1nc(O)c2ccccc2n1 | 3.64
28 | O=C(O)CCc1ccc2ccccc2n1 | < 3.14
29 | O=C(O)CCc1nc2ccccc2c2nc(=O)c(Cc3ccccc3)nn12 | 4.60
30 | O=C(O)Cn1cnc2ccccc2c1=O | 3.49
31 | O=C(O)CCc1nc2cc(Cl)ccc2n(Cc2ccccc2)c1=O | 3.82
32 | Cn1c(CCC(=O)O)nc2ccccc21 | 4.00
33 | N#Cc1c2n(c3c(=O)n(CC(=O)O)cnc13)CCCC2 | 4.11
34 | COc1nc2ccccc2nc1CCC(=O)O | 4.35
35 | O=C(O)Cc1nc2ccccc2s1 | 3.41

These molecules were tested against T1, Protein deacetylase HDAC6 (assay: Binding affinity to biotinylated HDAC6 ZnF-UBD (unknown origin) by surface plasmon resonance method). Conditions: not given.

Row | Structure (SMILES) | pKd
36 | O=C(O)CCc1nc2cc3nc(CCC(=O)O)sc3cc2s1 | 5.10
